Reference: US20240218022A1, “ANTI-VISTA MACROCYCLIC PEPTIDES AND COMPOSITIONS” (BRISTOL-MYERS SQUIBB COMPANY, priority 2022, published 2024)
Where two headings read alike, the source gives them in different places. Positions of bridges follow the written chain, without caps; N, C: chain ends. Non-standard residues stand in square brackets, D forms with d. Residues, ends and D or L forms follow the SMILES beside them. 2Nal = N[C@@H](Cc1ccc2ccccc2c1)C(=O)O; Cit = NC(=O)NCCC[C@H](N)C(=O)O; Ahp(2) = CCCCC[C@H](N)C(=O)O; NMeNle = CCCC[C@H](NC)C(=O)O; NHexGly = CCCCCCNCC(=O)O; Nle = CCCC[C@H](N)C(=O)O; Orn = NCCC[C@H](N)C(=O)O

Target: T1, mouse VISTA (mVISTA) (Mus musculus, UniProt Q9D659)
T1 construct: expressed in transfected cells; host or cells: Human embryonic kidney 293T cells
T1 sequence (Q9D659 33-308): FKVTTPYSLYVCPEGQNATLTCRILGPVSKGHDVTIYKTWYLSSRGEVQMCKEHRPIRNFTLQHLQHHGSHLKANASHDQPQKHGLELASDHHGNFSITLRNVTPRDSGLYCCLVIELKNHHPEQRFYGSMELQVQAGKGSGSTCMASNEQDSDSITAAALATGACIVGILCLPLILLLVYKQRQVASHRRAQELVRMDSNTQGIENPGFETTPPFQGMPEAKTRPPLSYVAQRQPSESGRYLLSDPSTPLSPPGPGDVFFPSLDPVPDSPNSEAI
Assay: Cell-Based Binding High-Content Assay For mVISTA (HC CBA mVISTA)
Details: read-out: HC CBA mVISTA IC50
Summary of the method: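 Read-out: Alexa 647–streptavidin signal imaged on fixed, Hoechst-stained mVISTA-293T cells, with IC50 taken from a four-parameter logistic curve. Compounds competed with 2 nM biotinylated peptide for 30 min at room temperature, tested under both no-wash and wash (1 h compound, media exchange, 1 h) formats.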

[1] = cell-based binding high-content assay, mVISTA, the 16th table
[2] = 293T cells expressing mouse VISTA, competition with biotinylated peptide (2 nM)

| Compound | IC50 [1] [nM] | IC50 [2] [nM] |
| --- | --- | --- |
| CCCCCCN1CC(=O)N[C@@H](Cc2ccc(O)cc2)C(=O)N[C@@H](C(C)C)C(=O)NCC(=O)N[C@@H](CCCNC(=N)N)C(=O)N[C@@H](CC(C)C)C(=O)N[C@@H](CCCCC)C(=O)N2CCC[C@H]2C(=O)N[C@@H](C(C)C)C(=O)N[C@@H](CC(=O)O)C(=O)N[C@H](C(=O)N[C@@H](CO)C(N)=O)CSCC(=O)N[C@@H](Cc2ccc3ccccc3c2)C(=O)N[C@@H](Cc2ccc(O)cc2)C(=O)N[C@@H](CC(=O)O)C1=O [Ex 1314] ({CH2CO}-[2Nal]YD[NHexGly]YVGRL[Ahp(2)]PVDCS-NH2; thioether N-14) | 1.4 |  |
| CCCCCCN1CC(=O)N[C@@H](Cc2ccc(O)cc2)C(=O)N[C@@H](CCCC)C(=O)N[C@@H](CC(N)=O)C(=O)N[C@@H](CCCNC(=N)N)C(=O)N[C@@H](CC(C)C)C(=O)N[C@@H](CCCCC)C(=O)N2CCC[C@H]2C(=O)N[C@@H](C(C)C)C(=O)N[C@@H](CC(=O)O)C(=O)N[C@H](C(=O)N[C@@H](CO)C(N)=O)CSCC(=O)N[C@@H](Cc2ccc3ccccc3c2)C(=O)N[C@@H](Cc2ccc(O)cc2)C(=O)N[C@@H](CC(=O)O)C1=O [Ex 1315] ({CH2CO}-[2Nal]YD[NHexGly]Y[Nle]NRL[Ahp(2)]PVDCS-NH2; thioether N-14) | 37.1 |  |
| CCCCCCN1CC(=O)N[C@@H](Cc2ccc(O)cc2)C(=O)N[C@@H](C(C)C)C(=O)NCC(=O)N[C@@H](CCCNC(N)=O)C(=O)N[C@@H](CC(C)C)C(=O)N[C@@H](CCCCC)C(=O)N2CCC[C@H]2C(=O)N[C@@H](C(C)C)C(=O)N[C@@H](CC(=O)O)C(=O)N[C@H](C(=O)N[C@@H](CO)C(N)=O)CSCC(=O)N[C@@H](Cc2ccc3ccccc3c2)C(=O)N[C@@H](Cc2ccc(O)cc2)C(=O)N[C@@H](CC(=O)O)C1=O [Ex 1316] ({CH2CO}-[2Nal]YD[NHexGly]YVG[Cit]L[Ahp(2)]PVDCS-NH2; thioether N-14) | 10.6 |  |
| CCCCCCN1CC(=O)N[C@@H](Cc2ccc(O)cc2)C(=O)N[C@@H](CCCC)C(=O)N[C@@H](CC(=O)O)C(=O)N[C@@H](CCCNC(=N)N)C(=O)N[C@@H](CC(C)C)C(=O)N[C@@H](CCCCC)C(=O)N2CCC[C@H]2C(=O)N[C@@H](C(C)C)C(=O)N[C@@H](CC(=O)O)C(=O)N[C@H](C(=O)N[C@@H](CO)C(N)=O)CSCC(=O)N[C@@H](Cc2ccc3ccccc3c2)C(=O)N[C@@H](Cc2ccc(O)cc2)C(=O)N[C@@H](CC(=O)O)C1=O [Ex 1317] ({CH2CO}-[2Nal]YD[NHexGly]Y[Nle]DRL[Ahp(2)]PVDCS-NH2; thioether N-14) | 17.5 |  |
| CCCCCCN1CC(=O)N[C@@H](Cc2ccc(O)cc2)C(=O)N[C@@H](CCCC)C(=O)N[C@@H](CC(=O)O)C(=O)N[C@@H](CCCNC(=N)N)C(=O)N(C)[C@@H](CCCC)C(=O)N[C@@H](CCCCC)C(=O)N2CCC[C@H]2C(=O)N[C@@H](C(C)C)C(=O)N[C@@H](CC(=O)O)C(=O)N[C@H](C(=O)N[C@@H](CO)C(N)=O)CSCC(=O)N[C@@H](Cc2ccc3ccccc3c2)C(=O)N[C@@H](Cc2ccc(O)cc2)C(=O)N[C@@H](CC(=O)O)C1=O [Ex 1318] ({CH2CO}-[2Nal]YD[NHexGly]Y[Nle]DR[NMeNle][Ahp(2)]PVDCS-NH2; thioether N-14) | 11.9 |  |
| CCCCCCN1CC(=O)N[C@@H](Cc2ccc(O)cc2)C(=O)N[C@@H](CCCC)C(=O)N[C@@H](CC(=O)O)C(=O)N[C@@H](CCCN)C(=O)N[C@@H](CC(C)C)C(=O)N[C@@H](CCCCC)C(=O)N2CCC[C@H]2C(=O)N[C@@H](C(C)C)C(=O)N[C@@H](CC(=O)O)C(=O)N[C@H](C(=O)N[C@@H](CO)C(N)=O)CSCC(=O)N[C@@H](Cc2ccc3ccccc3c2)C(=O)N[C@@H](Cc2ccc(O)cc2)C(=O)N[C@@H](CC(=O)O)C1=O [Ex 1319] ({CH2CO}-[2Nal]YD[NHexGly]Y[Nle]D[Orn]L[Ahp(2)]PVDCS-NH2; thioether N-14) | 13.7 |  |
| CCCCCCN1CC(=O)N[C@@H](Cc2ccc(O)cc2)C(=O)N[C@@H](CCCC)C(=O)N[C@@H](CC(=O)O)C(=O)N[C@@H](CCCN)C(=O)N(C)[C@@H](CCCC)C(=O)N[C@@H](CCCCC)C(=O)N2CCC[C@H]2C(=O)N[C@@H](C(C)C)C(=O)N[C@@H](CC(=O)O)C(=O)N[C@H](C(=O)N[C@@H](CO)C(N)=O)CSCC(=O)N[C@@H](Cc2ccc3ccccc3c2)C(=O)N[C@@H](Cc2ccc(O)cc2)C(=O)N[C@@H](CC(=O)O)C1=O [Ex 1320] ({CH2CO}-[2Nal]YD[NHexGly]Y[Nle]D[Orn][NMeNle][Ahp(2)]PVDCS-NH2; thioether N-14) | 21.3 |  |
| CCCCCCN1CC(=O)N[C@@H](Cc2ccc(O)cc2)C(=O)N[C@@H](CCCC)C(=O)N[C@@H](CC(N)=O)C(=O)N[C@@H](CCCNC(=N)N)C(=O)N[C@@H](CC(C)C)C(=O)N[C@@H](CCCCC)C(=O)N2CCC[C@H]2C(=O)N[C@@H](C(C)C)C(=O)N[C@@H](CC(=O)O)C(=O)N[C@H](C(=O)N[C@@H](Cc2c[nH]c3ccccc23)C(N)=O)CSCC(=O)N[C@@H](Cc2ccc3ccccc3c2)C(=O)N[C@@H](Cc2ccc(O)cc2)C(=O)N[C@@H](CC(=O)O)C1=O [Ex 1321] ({CH2CO}-[2Nal]YD[NHexGly]Y[Nle]NRL[Ahp(2)]PVDCW-NH2; thioether N-14) | 15.9 |  |
| CCCCCCN1CC(=O)N[C@@H](Cc2ccc(O)cc2)C(=O)N[C@@H](C(C)C)C(=O)NCC(=O)N[C@@H](CCCNC(=N)N)C(=O)N[C@@H](CC(C)C)C(=O)N[C@@H](CCCCC)C(=O)N2CCC[C@H]2C(=O)N[C@@H](C(C)C)C(=O)N[C@@H](CC(=O)O)C(=O)N[C@H](C(=O)N[C@@H](Cc2ccc(O)cc2)C(N)=O)CSCC(=O)N[C@@H](Cc2ccc3ccccc3c2)C(=O)N[C@@H](Cc2ccc(O)cc2)C(=O)N[C@@H](CC(=O)O)C1=O [Ex 1322] ({CH2CO}-[2Nal]YD[NHexGly]YVGRL[Ahp(2)]PVDCY-NH2; thioether N-14) | 5.5 |  |
| CCCCCCN1CC(=O)N[C@@H](Cc2ccc(O)cc2)C(=O)N[C@@H](CCCC)C(=O)N[C@@H](CC(N)=O)C(=O)N[C@@H](CCCNC(=N)N)C(=O)N[C@@H](CC(C)C)C(=O)N[C@@H](CCCCC)C(=O)N2CCC[C@H]2C(=O)N[C@@H](C(C)C)C(=O)N[C@@H](CC(=O)O)C(=O)N[C@H](C(=O)N[C@@H](Cc2ccc(O)cc2)C(N)=O)CSCC(=O)N[C@@H](Cc2ccc3ccccc3c2)C(=O)N[C@@H](Cc2ccc(O)cc2)C(=O)N[C@@H](CC(=O)O)C1=O [Ex 1323] ({CH2CO}-[2Nal]YD[NHexGly]Y[Nle]NRL[Ahp(2)]PVDCY-NH2; thioether N-14) | 13.5 |  |
| CCCCCCN1CC(=O)N[C@@H](Cc2ccc(O)cc2)C(=O)N[C@@H](CCCC)C(=O)N[C@@H](CC(=O)O)C(=O)N[C@@H](CCCNC(=N)N)C(=O)N[C@@H](CC(C)C)C(=O)N[C@@H](CCCCC)C(=O)N2CCC[C@H]2C(=O)N[C@@H](C(C)C)C(=O)N[C@@H](CC(=O)O)C(=O)N[C@H](C(=O)N[C@@H](CC(=O)O)C(N)=O)CSCC(=O)N[C@@H](Cc2ccccc2)C(=O)N[C@@H](Cc2ccc(O)cc2)C(=O)N[C@@H](CC(=O)O)C1=O [Example 1001] ({CH2CO}-FYD[NHexGly]Y[Nle]DRL[Ahp(2)]PVDCD-NH2; thioether N-14) |  | 12.7 |
| CCCCCCN1CC(=O)N[C@@H](Cc2ccc(O)cc2)C(=O)N[C@@H](CCCCC)C(=O)N[C@@H](CC(=O)O)C(=O)N[C@@H](CCCNC(=N)N)C(=O)N[C@@H](CC(C)C)C(=O)N[C@@H](CCCCC)C(=O)N2CCC[C@H]2C(=O)N[C@@H](C(C)C)C(=O)N[C@@H](CC(=O)O)C(=O)N[C@H](C(=O)N[C@H](CC(=O)O)C(N)=O)CSCC(=O)N[C@@H](Cc2ccccc2)C(=O)N[C@@H](Cc2ccc(O)cc2)C(=O)N[C@@H](CC(=O)O)C1=O [Example 1002] ({CH2CO}-FYD[NHexGly]Y[Ahp(2)]DRL[Ahp(2)]PVDC[dD]-NH2; thioether N-14) |  | 14.9 |
| CCCCCCN1CC(=O)N[C@@H](Cc2ccc(O)cc2)C(=O)N[C@@H](CCCC)C(=O)N[C@@H](CC(=O)O)C(=O)N[C@@H](CCCNC(=N)N)C(=O)N[C@@H](CC(C)C)C(=O)N[C@@H](CCCCC)C(=O)N2CCC[C@H]2C(=O)N[C@@H](C(C)C)C(=O)N[C@@H](CC(=O)O)C(=O)N[C@H](C(=O)N[C@H](CC(=O)O)C(N)=O)CSCC(=O)N[C@@H](Cc2ccccc2)C(=O)N[C@@H](Cc2ccc(O)cc2)C(=O)N[C@@H](CC(=O)O)C1=O [Example 1003] ({CH2CO}-FYD[NHexGly]Y[Nle]DRL[Ahp(2)]PVDC[dD]-NH2; thioether N-14) |  | 18.8 |
| CCCCCCN1CC(=O)N[C@@H](Cc2ccc(O)cc2)C(=O)N[C@@H](CCCCC)C(=O)N[C@@H](CC(=O)O)C(=O)N[C@@H](CCCNC(=N)N)C(=O)N[C@@H](CC(C)C)C(=O)N[C@@H](CCCCC)C(=O)N2CCC[C@H]2C(=O)N[C@@H](C(C)C)C(=O)N[C@@H](CC(=O)O)C(=O)N[C@H](C(=O)N[C@@H](CCC(=O)O)C(N)=O)CSCC(=O)N[C@@H](Cc2ccccc2)C(=O)N[C@@H](Cc2ccc(O)cc2)C(=O)N[C@@H](CC(=O)O)C1=O [Example 1004] ({CH2CO}-FYD[NHexGly]Y[Ahp(2)]DRL[Ahp(2)]PVDCE-NH2; thioether N-14) |  | 12.9 |
| CCCCCCN1CC(=O)N[C@@H](Cc2ccc(O)cc2)C(=O)N[C@@H](CCCC)C(=O)N[C@@H](CC(=O)O)C(=O)N[C@@H](CCCNC(=N)N)C(=O)N[C@@H](CC(C)C)C(=O)N[C@@H](CCCCC)C(=O)N2CCC[C@H]2C(=O)N[C@@H](C(C)C)C(=O)N[C@@H](CC(=O)O)C(=O)N[C@H](C(=O)N[C@@H](CCC(=O)O)C(N)=O)CSCC(=O)N[C@@H](Cc2ccccc2)C(=O)N[C@@H](Cc2ccc(O)cc2)C(=O)N[C@@H](CC(=O)O)C1=O [Example 1005] ({CH2CO}-FYD[NHexGly]Y[Nle]DRL[Ahp(2)]PVDCE-NH2; thioether N-14) |  | 12.7 |
